Experimental findings from patent US20140113874A1, “Modified Compstatin With Improved Stability And Binding Properties” (THE TRUSTEES OF THE UNIVERSITY OF PENNSYLVANIA, priority 2010, published 2014) are described below.

In test [1] the target is Biotinylated C3b (UniProt P01024). Kind of test: SPR (Biacore 3000), single-cycle kinetics, peptide over biotinylated C3b captured on streptavidin chip, 1:1 model.
The target in test [2] is C3b (Homo sapiens, UniProt P01024). Kind of test: Biacore SPR kinetic analysis on captured biotinylated C3b. The settings on record: 1:1 binding model; average of multiple datasets. The method, then: The interaction of the compstatin analogs with C3b was characterized using a Biacore 3000 instrument (GE Healthcare, Corp., Piscataway, N.J.). The running buffer was PBS, pH 7.4 (10 mM sodium phosphate, 150 mM NaCl) with 0.005% Tween-20. Biotinylated C3b was captured site-specifically on a streptravidin chip at about 3000, 4000 and 5000 RU density; an untreated flowcell was used as a reference surface. For kinetic analysis, sets of five samples of increasing concentrations were injected over the chip surface one after the other in a single cycle. […] The data analysis was performed using BiaEvaluation. The processed signals were fitted to a 1:1 binding model and kinetic constants were extracted. […] 2 min injections at 30 ul/min were performed, after which a 3 min dissociation was monitored. […] Data analysis followed using Scrubber (BioLogic Software, Campbell, Australia). The processed signals were globally fitted to a Langmuir 1:1 binding isotherm and kinetic constants were extracted.

The subject of test [3] is classical pathway of complement activation. Kind of test: ELISA-based complement inhibition assay (antigen-antibody complex initiated, C3b deposition). The settings on record: for relative activity (rank order) in inhibition of antigen-antibody complex-initiated complement activation: FIG. 4, representative result; for IC50: read-out: IC50, concentration at which the peptides inhibit complement activation by 50%, plasma 1:80 in VB++, average of five datasets. It counts as biochemical. The protocol:
An ELISA-based assay was performed to assess the complement inhibitory ability of the compstatin analogs. Briefly, an antigen-antibody complex was used as an initiator of the classical pathway of complement activation. […] Incubation followed to allow complement activation. The deposition of C3b on the plate was measured by a polyclonal anti-C3 antibody. The percentage of inhibition was plotted against the compstatin concentration and fitted to a logistic dose-response function using OriginPro 8.

For test [4], the target named is T1, Complement C3 (in plasma) (UniProt P01024 23-1663, limits assumed). Kind of test: cell-based or functional assay.
The target in test [5] is T1, Complement C3 (in plasma). In words: cell-based or functional assay. The source holds these as a separate data set.

Numbered stars: 1 amine (or outer) side, 2 acyl side, 3 side chain; on linkers, the order of the positions; unused ones are H or OH. Bridge positions count the residues as written; N and C are the ends. Square brackets hold non-standard residues; d marks the D form. Peptide text beside a SMILES is read from it. Trp(1-Me) = Cn1cc(C[C@H](N)C(=O)O)c2ccccc21; Abu(4-yl) = O=C([C@H](CC[*:3])N[*:1])[*:2]; NMeI = CC[C@H](C)[C@H](NC)C(=O)O; Sar = CNCC(=O)O

T1 sequence (P01024 23-1663 limits assumed): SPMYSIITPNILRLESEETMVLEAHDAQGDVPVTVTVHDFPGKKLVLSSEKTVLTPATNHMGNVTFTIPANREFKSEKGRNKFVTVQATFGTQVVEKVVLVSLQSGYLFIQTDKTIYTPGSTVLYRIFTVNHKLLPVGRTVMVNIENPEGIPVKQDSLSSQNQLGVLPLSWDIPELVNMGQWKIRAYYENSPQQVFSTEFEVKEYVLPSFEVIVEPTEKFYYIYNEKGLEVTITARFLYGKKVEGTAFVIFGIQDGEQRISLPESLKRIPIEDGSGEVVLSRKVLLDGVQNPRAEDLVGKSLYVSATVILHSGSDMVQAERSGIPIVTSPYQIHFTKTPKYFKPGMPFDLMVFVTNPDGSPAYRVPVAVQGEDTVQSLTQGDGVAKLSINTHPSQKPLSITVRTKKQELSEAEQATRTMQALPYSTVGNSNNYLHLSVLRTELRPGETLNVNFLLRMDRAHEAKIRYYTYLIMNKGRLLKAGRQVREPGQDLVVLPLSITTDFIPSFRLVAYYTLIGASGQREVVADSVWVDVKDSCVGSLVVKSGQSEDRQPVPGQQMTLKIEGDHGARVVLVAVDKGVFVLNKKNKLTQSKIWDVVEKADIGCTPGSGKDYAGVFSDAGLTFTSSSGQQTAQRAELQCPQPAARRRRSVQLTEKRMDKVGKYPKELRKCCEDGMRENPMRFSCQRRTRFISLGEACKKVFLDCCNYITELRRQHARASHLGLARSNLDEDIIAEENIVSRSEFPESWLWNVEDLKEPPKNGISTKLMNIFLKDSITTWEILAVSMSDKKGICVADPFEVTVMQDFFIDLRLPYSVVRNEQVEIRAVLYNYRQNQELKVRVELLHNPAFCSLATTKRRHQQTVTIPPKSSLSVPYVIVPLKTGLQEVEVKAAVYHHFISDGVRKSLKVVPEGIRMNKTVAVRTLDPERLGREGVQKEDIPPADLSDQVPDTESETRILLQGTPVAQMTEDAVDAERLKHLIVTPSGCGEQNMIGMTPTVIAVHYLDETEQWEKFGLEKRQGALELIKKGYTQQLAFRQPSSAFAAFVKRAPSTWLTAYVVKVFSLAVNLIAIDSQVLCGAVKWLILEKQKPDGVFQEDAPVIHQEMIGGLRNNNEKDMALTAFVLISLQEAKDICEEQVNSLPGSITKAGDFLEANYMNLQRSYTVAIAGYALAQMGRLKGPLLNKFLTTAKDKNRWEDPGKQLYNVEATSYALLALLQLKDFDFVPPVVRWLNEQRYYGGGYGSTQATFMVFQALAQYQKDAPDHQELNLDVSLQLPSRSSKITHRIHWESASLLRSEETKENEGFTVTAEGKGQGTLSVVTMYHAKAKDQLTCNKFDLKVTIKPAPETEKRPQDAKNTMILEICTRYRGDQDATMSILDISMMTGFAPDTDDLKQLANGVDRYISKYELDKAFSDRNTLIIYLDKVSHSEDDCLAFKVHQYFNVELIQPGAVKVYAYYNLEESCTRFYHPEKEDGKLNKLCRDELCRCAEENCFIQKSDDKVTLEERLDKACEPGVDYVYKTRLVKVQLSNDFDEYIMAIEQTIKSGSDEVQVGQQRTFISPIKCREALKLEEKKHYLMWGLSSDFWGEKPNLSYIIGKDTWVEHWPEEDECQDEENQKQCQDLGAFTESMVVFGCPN
Sequence of C3b (P01024 23-667 limits assumed): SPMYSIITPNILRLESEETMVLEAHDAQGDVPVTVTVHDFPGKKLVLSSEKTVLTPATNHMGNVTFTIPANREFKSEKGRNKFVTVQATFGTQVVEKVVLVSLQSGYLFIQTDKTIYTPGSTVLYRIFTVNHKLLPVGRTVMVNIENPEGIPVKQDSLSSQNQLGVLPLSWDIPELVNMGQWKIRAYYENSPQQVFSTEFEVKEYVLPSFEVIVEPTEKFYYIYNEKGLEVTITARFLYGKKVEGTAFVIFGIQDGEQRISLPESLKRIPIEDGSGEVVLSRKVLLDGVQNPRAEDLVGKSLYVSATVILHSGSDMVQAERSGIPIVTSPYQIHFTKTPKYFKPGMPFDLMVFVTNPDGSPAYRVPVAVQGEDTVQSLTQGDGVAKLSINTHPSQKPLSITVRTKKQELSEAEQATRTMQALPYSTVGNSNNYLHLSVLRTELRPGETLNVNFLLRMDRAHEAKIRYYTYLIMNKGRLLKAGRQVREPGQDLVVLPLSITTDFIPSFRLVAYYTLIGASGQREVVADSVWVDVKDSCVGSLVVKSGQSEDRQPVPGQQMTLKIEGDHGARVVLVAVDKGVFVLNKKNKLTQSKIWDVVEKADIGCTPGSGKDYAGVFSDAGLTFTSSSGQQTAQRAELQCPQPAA
Sequence of C3b (P01024 749-1663 partner limits assumed): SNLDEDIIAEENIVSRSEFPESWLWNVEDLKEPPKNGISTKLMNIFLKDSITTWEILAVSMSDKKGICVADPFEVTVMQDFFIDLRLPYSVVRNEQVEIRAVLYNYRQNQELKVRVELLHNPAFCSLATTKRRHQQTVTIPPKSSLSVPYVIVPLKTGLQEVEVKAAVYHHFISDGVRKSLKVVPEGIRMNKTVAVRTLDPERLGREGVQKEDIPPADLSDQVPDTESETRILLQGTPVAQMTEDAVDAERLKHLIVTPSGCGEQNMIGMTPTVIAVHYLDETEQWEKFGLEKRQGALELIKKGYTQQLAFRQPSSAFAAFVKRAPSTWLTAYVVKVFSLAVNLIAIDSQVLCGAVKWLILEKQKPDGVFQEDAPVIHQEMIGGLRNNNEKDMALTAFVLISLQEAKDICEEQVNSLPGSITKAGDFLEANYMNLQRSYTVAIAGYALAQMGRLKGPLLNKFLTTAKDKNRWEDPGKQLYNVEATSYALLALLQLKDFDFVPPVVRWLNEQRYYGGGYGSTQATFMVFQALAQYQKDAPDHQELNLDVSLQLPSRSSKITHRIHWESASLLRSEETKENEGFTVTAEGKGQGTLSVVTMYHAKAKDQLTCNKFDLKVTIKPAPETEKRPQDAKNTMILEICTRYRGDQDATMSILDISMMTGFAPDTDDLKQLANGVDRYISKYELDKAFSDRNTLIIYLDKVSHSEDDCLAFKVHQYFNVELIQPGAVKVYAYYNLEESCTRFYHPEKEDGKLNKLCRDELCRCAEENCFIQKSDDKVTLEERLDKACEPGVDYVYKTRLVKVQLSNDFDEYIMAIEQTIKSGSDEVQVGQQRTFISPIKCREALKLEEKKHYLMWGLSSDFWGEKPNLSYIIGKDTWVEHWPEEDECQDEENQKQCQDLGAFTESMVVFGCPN

In test [1], “CP20 compstatin analog (disulfide control) (peptide)” returned a Kd of 2.4 nM, a koff of 0.004 s⁻¹ and a kon of 1.86e+06 M⁻¹ s⁻¹.

For `CC[C@H](C)[C@H](NC(C)=O)C(=O)N[C@H]1CSSC[C@@H](C(=O)N(C)[C@H](C(N)=O)[C@@H](C)CC)NC(=O)[C@H](CCCNC(=N)N)NC(=O)[C@H](Cc2c[nH]cn2)NC(=O)[C@H](C)NC(=O)CN(C)C(=O)[C@H](Cc2c[nH]c3ccccc23)NC(=O)[C@H](CC(=O)O)NC(=O)[C@H](CCC(N)=O)NC(=O)[C@H](Cc2cn(C)c3ccccc23)NC(=O)[C@H](C(C)C)NC1=O` [CP20, AC-Ic[CV(^1-MeW)QDW(^N-MeG)AHRC](^N-MeI)-NH2, reference compound], in test [2], the kd is 0.4 ± 0.1 10^−2 s^−1. For the same molecule, in test [3], the “relative activity (rank order) in inhibition of antigen-antibody complex-initiated complement activation” value is given as “CP20>delta-Cth CP20>4W9A>delta-Cth>gamma-Cth” and the IC50 turned out to be 130 ± 50 nM.

On to `CC[C@H](C)[C@H](NC(C)=O)C(=O)N[C@H]1CCSC[C@@H](C(=O)N[C@H](C(N)=O)[C@@H](C)O)NC(=O)[C@H](CCCNC(=N)N)NC(=O)[C@H](Cc2c[nH]cn2)NC(=O)[C@H](C)NC(=O)CNC(=O)[C@H](Cc2c[nH]c3ccccc23)NC(=O)[C@H](CC(=O)O)NC(=O)[C@H](CCC(N)=O)NC(=O)[C@H](Cc2c[nH]c3ccccc23)NC(=O)[C@H](C(C)C)NC1=O` [Gamma-Cth] (Ac-I[Abu(4-yl)]VWQDWGAHRCT-NH2; thioether 2-12), for which the kd in test [2] is 46.8 ± 5.7 10^−2 s^−1.

For the molecule `CC[C@H](C)[C@H](NC(C)=O)C(=O)N[C@H]1CSCC[C@@H](C(=O)N(C)[C@H](C(N)=O)[C@@H](C)CC)NC(=O)[C@H](CCCNC(=N)N)NC(=O)[C@H](Cc2c[nH]cn2)NC(=O)[C@H](C)NC(=O)CN(C)C(=O)[C@H](Cc2c[nH]c3ccccc23)NC(=O)[C@H](CC(=O)O)NC(=O)[C@H](CCC(N)=O)NC(=O)[C@H](Cc2cn(C)c3ccccc23)NC(=O)[C@H](C(C)C)NC1=O` [Delta-Cth CP20, Ac-Ic[CV(^1-MeW)QDW(^N-MeG)AHRC](^N-MeI)-NH2] (Ac-ICV[Trp(1-Me)]QDW[Sar]AHR[Abu(4-yl)][NMeI]-NH2; thioether 2-12), the kd in test [2] is reported as 1.5 ± 0.4 10^−2 s^−1. Further, in test [3], the “relative activity (rank order) in inhibition of antigen-antibody complex-initiated complement activation” value is listed as “CP20>delta-Cth CP20>4W9A>delta-Cth>gamma-Cth” and the IC50 came to 260 ± 90 nM.

Regarding `CC[C@H](C)[C@H](NC(C)=O)C(=O)N[C@H]1CSCC[C@@H](C(=O)N[C@H](C(N)=O)[C@@H](C)O)NC(=O)[C@H](CCCNC(=N)N)NC(=O)[C@H](Cc2c[nH]cn2)NC(=O)[C@H](C)NC(=O)CNC(=O)[C@H](Cc2c[nH]c3ccccc23)NC(=O)[C@H](CC(=O)O)NC(=O)[C@H](CCC(N)=O)NC(=O)[C@H](Cc2c[nH]c3ccccc23)NC(=O)[C@H](C(C)C)NC1=O` [Delta-Cth] (Ac-ICVWQDWGAHR[Abu(4-yl)]T-NH2; thioether 2-12), the kd in test [2] is on record as 11 ± 1.9 10^−2 s^−1.

B1: CP20 delta-Cth (delta-cystathionine CP20 compstatin analog) (peptide)
peptide: ICVWQDWGAHRCI
modifications: N-terminal acetyl (Ac-Ile1); 1-methyl-Trp at position 4; N-methyl-Gly at position 8; N-methyl-Ile at position 13; C-terminal amide (-NH2); C2-C12 thioether bond forming delta-cystathionine
For the molecule B1, the “IC50, inhibition of antigen-antibody complex-initiated (classical pathway) complement activation, C3b deposition ELISA” value in test [4] amounted to 260 nM. Moreover, the “IC50 (read off the curve)” value in test [5] was ~300 nM.

B2: CP20 compstatin analog (disulfide control) (peptide)
peptide: Ac-ICV[Trp(1-Me)]QDW[Sar]AHRC[NMeI]-NH2
modifications: disulfide 2-12
SMILES: CC[C@H](C)[C@H](NC(C)=O)C(=O)N[C@H]1CSSC[C@@H](C(=O)N(C)[C@H](C(N)=O)[C@@H](C)CC)NC(=O)[C@H](CCCNC(=N)N)NC(=O)[C@H](Cc2c[nH]cn2)NC(=O)[C@H](C)NC(=O)CN(C)C(=O)[C@H](Cc2c[nH]c3ccccc23)NC(=O)[C@H](CC(=O)O)NC(=O)[C@H](CCC(N)=O)NC(=O)[C@H](Cc2cn(C)c3ccccc23)NC(=O)[C@H](C(C)C)NC1=O
Turning to B2, the “IC50, inhibition of antigen-antibody complex-initiated (classical pathway) complement activation, C3b deposition ELISA” value in test [4] was 130 nM. Besides, the “IC50 (read off the curve)” value in test [5] is ~100 nM.
